Measurements taken from US20210094933A1, “RAPAFUCIN DERIVATIVE COMPOUNDS AND METHODS OF USE THEREOF” (The Johns Hopkins University, priority 2019, published 2021).
Numbered stars: 1 amine (or outer) side, 2 acyl side, 3 side chain; on linkers, the order of the positions; unused ones are H or OH. Square brackets hold non-standard residues; d marks the D form. Side chains are listed from the residue outwards. Peptide text beside a SMILES is read from it. * marks the point of attachment. X1 = COc1ccc(CC[C@@H](N[*:1])c2cccc(OCC(=O)[*:2])c2)cc1OC; X2 = CN(CCC=CC(=O)OCC(C)(C)C(=O)C(=O)[*:2])[*:1]; Pip = O=C(O)[C@@H]1CCCCN1; Morpholide = C1CN(*)CCO1; CO = O=C([*:1])[*:2]; Sar = CNCC(=O)O

Columns and labels:
Format in all cases: cell-based
[1] = Cell proliferation assay, single concentration, response relative to DMSO; cell line indicated in each table; conditions: NCI-H929 cells
Experimental: (§1) Cell Proliferation Assay (Prolif.) Guo et al. (2018) Nat. Chem. 11:254-63. Specific cell lines are indicated in each assay and cultured in complete growth media. Activity is scored according to the IC50 values relative to DMSO control. “Low” indicates an IC50 greater than 600 nM, “Medium” indicates an IC50 between 300 nM and 600 nM “High” indicates an IC50 less than 300 nM. “Rel.Uptake” refers to uptake activity characterization relative to a single concentration assay. “Low” indicates a response greater than 0.6 times the activity relative to DMSO, “Medium” indicates a response between 0.6 and 0.3 times the activity relative to DMSO, “High” indicates a response less than 0.3 times the activity relative to DMSO.

[2] = test system: H929; test: Cell proliferation assay (Prolif.), IC50 relative to DMSO control; conditions: H929 cells; class relative to DMSO control
Experimental: as §1

[3] = Nucleoside uptake assay, single concentration (Rel.Uptake), response relative to DMSO; cell line indicated in each table
Experimental: (§2) Nucleoside Uptake Assay (uptake). Nuceloside uptake assays were performed with using 3H-Thymidine as described in Guo et al. (2018) Nat. Chem, 11:254-63. Specific cell lines are indicated in each assay and cultured in complete growth media. Activity is scored according to the IC50 values relative to DMSO control. “Low” indicates an IC50 greater than 600 nM, “Medium” indicates an IC50 between 300 nM and 600 nM “High” indicates an IC50 less than 300 nM. “Rel.Uptake” refers to uptake activity characterization relative to a single concentration assay. “Low” indicates a response greater than 0.6 times the activity relative to DMSO, “Medium” indicates a response between 0.6 and 0.3 times the activity relative to DMSO, “High” indicates a response less than 0.3 times the activity relative to DMSO.

[4] = test system: 293T; test: Nucleoside uptake assay (3H-Thymidine), IC50 relative to DMSO control; conditions: 293T cells
Experimental: as §2

[5] = nucleoside uptake, single concentration, 293T cells
[6] = 3H-Thymidine uptake, IC50 class relative to DMSO control
[7] = 293 T cells, single concentration
[8] = 293 T cells, nucleoside uptake at single concentration

Compound	Uptake, 293T [4, 6]	Rel. Uptake, 293 T [3, 8]	also measured
COc1ccc(CC[C@H]2OC(=O)[C@@H]3CCCCN3C(=O)C(=O)C(C)(C)COC(=O)C=CCCN(C)C(=O)[C@@H](Cc3ccccc3)NC(=O)CN(C)C(=O)[C@@H](Cc3ccccc3)NC(=O)[C@H](Cc3ccc(OC(=O)N4CCOCC4)cc3)N(C)C(=O)CCC(=O)Nc3cccc2c3)cc1OC [Compound 869]			Rel. Prolif., NCI-H929 [1]: low; Prolif. H929 [2]: high
COc1ccc(CC[C@H]2NC(=O)[C@@H]3CCCCN3C(=O)C(=O)C(C)(C)COC(=O)C=CCCN(C)C(=O)[C@@H](Cc3ccccc3)NC(=O)CN(C)C(=O)[C@@H](Cc3ccccc3)NC(=O)[C@H](Cc3ccc(OC(=O)N4CCOCC4)cc3)NC(=O)COc3cccc2c3)cc1OC [Compound 877] (cyclo([Pip][X1]Y([CO-Morpholide])[dF][Sar][dF][X2]))			Rel. Prolif., NCI-H929 [1]: low; Prolif. H929 [2]: low
COc1ccc(CC[C@H]2OC(=O)[C@@H]3CCCCN3C(=O)C(=O)C(C)(C)COC(=O)C=CCCN(C)C(=O)[C@H](CC(C)C)N(C)C(=O)[C@H]3CCCN3C(=O)[C@H](CC(=O)OC(C)(C)C)N(C)C(=O)C(c3ccccc3)NC(=O)CCC(=O)Nc3cccc2c3)cc1OC (some centres unmarked) [Compound 1066]	high		Rel. Uptake, 293 T [3, 5]: high
COc1ccc(CC[C@H]2OC(=O)[C@@H]3CCCCN3C(=O)C(=O)C(C)(C)COC(=O)C=CCCN(C)C(=O)[C@H](CC(C)C)N(C)C(=O)[C@H]3CCCN3C(=O)[C@H](Cc3ccc(CC(=O)OC(C)(C)C)cc3)NC(=O)C(c3ccccc3)NC(=O)CCC(=O)Nc3cccc2c3)cc1OC (some centres unmarked) [Compound 1081]	medium		Rel. Uptake, 293 T [3, 5]: medium
COc1ccc(CC[C@H]2OC(=O)[C@@H]3CCCCN3C(=O)C(=O)C(C)(C)COC(=O)C=CCCN(C)C(=O)[C@H](CC(C)C)N(C)C(=O)[C@H]3CCCN3C(=O)[C@H](Cc3ccc(OCc4ccccc4)cc3)NC(=O)C(c3ccccc3)NC(=O)CCC(=O)Nc3cccc2c3)cc1OC (some centres unmarked) [Compound 1082]	low		Rel. Uptake, 293 T [3, 5]: low
COc1ccc(CC[C@H]2OC(=O)[C@@H]3CCCCN3C(=O)C(=O)C(C)(C)COC(=O)C=CCCN(C)C(=O)[C@H](CC(C)C)N(C)C(=O)[C@H]3CCCN3C(=O)[C@H]3C[C@@H](NC(=O)OC(C)(C)C)CN3C(=O)C(c3ccccc3)NC(=O)CCC(=O)Nc3cccc2c3)cc1OC (some centres unmarked) [Compound 1087]	low		Rel. Uptake, 293 T [3, 7]: low
COc1ccc(CC[C@H]2OC(=O)[C@@H]3CCCCN3C(=O)C(=O)C(C)(C)COC(=O)C=CCCN(C)C(=O)[C@H](CC(C)C)N(C)C(=O)[C@H]3CCCN3C(=O)[C@H](Cc3ccccc3)N(C)C(=O)[C@H](CC(=O)OC(C)(C)C)NC(=O)CCC(=O)Nc3cccc2c3)cc1OC [Compound 1088]	low		Rel. Uptake, 293 T [3, 7]: low
COc1ccc(CC[C@H]2OC(=O)[C@@H]3CCCCN3C(=O)C(=O)C(C)(C)COC(=O)C=CCCN(C)C(=O)[C@@H](c3ccccc3)NC(=O)[C@H](Cc3ccc(OP(C)(C)=O)cc3)NC(=O)[C@H]3CCCN3C(=O)[C@H](CC(C)C)N(C)C(=O)COc3cccc2c3)cc1OC [Compound 1520]	low	low	
COc1ccc(CC[C@H]2OC(=O)[C@@H]3CCCCN3C(=O)C(=O)C(C)(C)COC(=O)C=CCCN(C)C(=O)[C@H](CC(C)C)N(C)C(=O)[C@H]3CCCN3C(=O)[C@H](Cc3ccc(O)cc3)NC(=O)C(c3ccccc3)NC(=O)CCC(=O)Nc3cccc2c3)cc1OC (some centres unmarked) [Compound 1522]	high	high	
COc1ccc(CC[C@H]2OC(=O)[C@@H]3CCCCN3C(=O)C(=O)C(C)(C)CNC(=O)C=CCCN(C)C(=O)[C@H](CC(C)C)N(C)C(=O)[C@H]3CCCN3C(=O)[C@H](Cc3ccccc3)N(C)C(=O)C(c3ccccc3)NC(=O)CCC(=O)Nc3cccc2c3)cc1OC (some centres unmarked) [Compound 1555]	high	high	
COc1ccc(CC[C@H]2OC(=O)[C@@H]3CCCCN3C(=O)C(=O)C(C)(C)COC(=O)C=CCCN(C)NC(c3ccccc3)C(=O)N(C)[C@@H](Cc3ccccc3)C(=O)N3CCC[C@@H]3C(=O)N(C)[C@@H](CC(C)C)C(=O)C(=O)CCOc3cccc2c3)cc1OC (some centres unmarked) [Compound 1556]	low	low	
COc1ccc(CC[C@H]2NC(=O)[C@@H]3CCCCN3C(=O)C(=O)C(C)(C)CNC(=O)C=CCCN(C)C(=O)[C@H](CC(C)C)N(C)C(=O)[C@H]3CCCN3C(=O)[C@H](Cc3ccccc3)N(C)C(=O)C(c3ccccc3)NC(=O)CCC(=O)Nc3cccc2c3)cc1OC (some centres unmarked) [Compound 1557]	high	high	
COc1ccc(CC[C@H]2OC(=O)[C@@H]3CCCCN3C(=O)C(=O)C(C)(C)COC(=O)C=CCCN(C)C(=O)[C@H](CC(C)C)N(C)C(=O)[C@H]3CCCN3C(=O)[C@H](Cc3ccc(C(=O)NCCO)cc3)NC(=O)[C@H](c3ccccc3)NC(=O)CCC(=O)Nc3cccc2c3)cc1OC [Compound 1558]		high	Uptake, 293T ([4]; Table 14): high
COc1ccc(CC[C@H]2OC(=O)[C@@H]3CCCCN3C(=O)C(=O)C(C)(C)COC(=O)C=CCCN(C)C(=O)[C@H](CC(C)C)N(C)C(=O)[C@H]3CCCN3C(=O)[C@H](Cc3ccc(C(=O)Nc4ccccc4)cc3)NC(=O)[C@H](c3ccccc3)NC(=O)CCC(=O)Nc3cccc2c3)cc1OC [Compound 1559]		medium	Uptake, 293T ([4]; Table 14): me- dium
COc1ccc(CC[C@H]2OC(=O)[C@@H]3CCCCN3C(=O)C(=O)C(C)(C)COC(=O)C=CCCN(C)C(=O)[C@H](CC(C)C)N(C)C(=O)[C@H]3CCCN3C(=O)[C@H](Cc3ccc(C(=O)Nc4cccnc4)cc3)NC(=O)[C@H](c3ccccc3)NC(=O)CCC(=O)Nc3cccc2c3)cc1OC [Compound 1562]		low	Uptake, 293T ([4]; Table 14): low
COc1ccc(CC[C@H]2OC(=O)[C@@H]3CCCCN3C(=O)C(=O)C(C)(C)COC(=O)C=CCCN(C)C(=O)[C@H](CC(C)C)N(C)C(=O)[C@H]3CCCN3C(=O)[C@H](Cc3ccc(CNC(=O)c4ccccc4)cc3)NC(=O)[C@H](c3ccccc3)NC(=O)CCC(=O)Nc3cccc2c3)cc1OC [Compound 1585]		High (“High” indicates a response less than 0.3 times the activity relative to DMSO)	IC50 ([4]; Table 13): < 0.3 µM
COc1ccc(CC[C@H]2OC(=O)[C@@H]3CCCCN3C(=O)C(=O)C(C)(C)COC(=O)C=CCCN(C)C(=O)[C@H](CC(C)C)N(C)C(=O)[C@H]3CCCN3C(=O)[C@H](Cc3ccc(CNC(=O)Cc4ccccc4)cc3)NC(=O)[C@H](c3ccccc3)NC(=O)CCC(=O)Nc3cccc2c3)cc1OC [Compound 1586]		Med	Uptake, 293T ([4]; Table 13): Med
COc1ccc(CC[C@H]2OC(=O)[C@@H]3CCCCN3C(=O)C(=O)C(C)(C)COC(=O)C=CCCN(C)C(=O)[C@H](CC(C)C)N(C)C(=O)[C@H]3CCCN3C(=O)[C@H](Cc3ccc(CNC(=O)CN(C)C)cc3)NC(=O)[C@H](c3ccccc3)NC(=O)CCC(=O)Nc3cccc2c3)cc1OC [Compound 1587]		Low (“Low” indicates a response greater than 0.6 times the activity relative to DMSO)	IC50 ([4]; Table 13): > 0.6 µM
COc1ccc(CC[C@H]2OC(=O)[C@@H]3CCCCN3C(=O)C(=O)C(C)(C)COC(=O)C=CCCN(C)C(=O)[C@H](CC(C)C)N(C)C(=O)[C@H]3CCCN3C(=O)[C@H](Cc3cccc(NC(C)=O)c3)NC(=O)[C@H](c3ccccc3)NC(=O)CCC(=O)Nc3cccc2c3)cc1OC [Compound 1588]		High (“High” indicates a response less than 0.3 times the activity relative to DMSO)	IC50 ([4]; Table 13): < 0.3 µM
COc1ccc(CC[C@H]2OC(=O)[C@@H]3CCCCN3C(=O)C(=O)C(C)(C)COC(=O)C=CCCN(C)C(=O)[C@H](CC(C)C)N(C)C(=O)[C@H]3CCCN3C(=O)[C@H](Cc3ccc(NC(=O)Cc4cccnc4)cc3)NC(=O)[C@H](c3ccccc3)NC(=O)CCC(=O)Nc3cccc2c3)cc1OC [Compound 1589]		Low (“Low” indicates a response greater than 0.6 times the activity relative to DMSO)	IC50 ([4]; Table 13): > 0.6 µM
COc1ccc(CC[C@H]2OC(=O)[C@@H]3CCCCN3C(=O)C(=O)C(C)(C)COC(=O)C=CCCN(C)C(=O)[C@H](CC(C)C)N(C)C(=O)[C@H]3CCCN3C(=O)[C@H](Cc3ccc(CC(=O)NCc4ccccc4)cc3)NC(=O)[C@H](c3ccccc3)NC(=O)CCC(=O)Nc3cccc2c3)cc1OC [Compound 1590]		High (“High” indicates a response less than 0.3 times the activity relative to DMSO)	IC50 ([4]; Table 14): > 0.6 µM
CCCCCCNC(=O)Cc1ccc(C[C@@H]2NC(=O)[C@H](c3ccccc3)NC(=O)CCC(=O)Nc3cccc(c3)[C@@H](CCc3ccc(OC)c(OC)c3)OC(=O)[C@@H]3CCCCN3C(=O)C(=O)C(C)(C)COC(=O)C=CCCN(C)C(=O)[C@H](CC(C)C)N(C)C(=O)[C@H]3CCCN3C2=O)cc1 [Compound 1591]		Med	IC50 ([4]; Table 14): > 0.6 µM
